The source of these data is patent US6472530B1, “Benzo-fused dithiepino[6,5-b]pyridines, and related compositions and methods” (Ortho-McNeil Pharmaceutical, Inc., priority 1999, dated 2002).

In this assay the target is T1, calcium channel (Oryctolagus cuniculus, UniProt P15381).
T1 construct: from tissue; host or cells: rabbit heart membrane preparation
The assay can be described thus: Assay for Inhibition of Nitrendipine Binding (3H-nitrendipine, heart membranes). Further details: species or system rabbit. The method, then:
Assay for Inhibition of Nitrendipine Binding
Female, New Zealand white rabbits (1-2 kg) are sacrificed by cervical dislocation, and the heart is immediately removed, cleaned and chopped into small pieces. The tissue is homogenized in 5×times volume of 0.05M Hepes buffer, pH 7.4. The homogenate is centrifuged at 4000 g for 10 minutes, and the supernatant is re-centrifuged at 42,000×g for 90 minutes. The resulting membrane pellet is resuspended (0.7 ml/g weight) in 0.05M Hepes, pH 7.4 and stored at […] until used. Each tube of the binding assay contains ^3H-nitrendipine (0.05-0.50 nM), buffer, membranes (0.10 ml), and test compound in a total volume of 1.0 ml. After 90 minutes at 4° C., the bound nitrendipine is separated from the unbound by filtration on Whatman GF/C filters. After rinsing, the filters are dried and counted in a liquid scintillation counter.
Non-specific binding of ^3H-nitrendipine (that amount bound in the presence of excess unlabelled nitrendipine) is subtracted from the total bound to obtain specifically bound radiolabeled nitrendipine. The amount of specifically bound nitrendipine in the presence of a test compound is compared to that amount bound in the absence of a compound. A percent displacement (or inhibition) can then be calculated.

The mark [1] stands for this setting: Table 2, compounds of Formula II, 3H-nitrendipine displacement, rabbit heart membranes, read-out: Nitrendipine Binding IC50.

The structures appear in SMILES notation. Where two headings read alike, the source gives them in different places.

T1 sequence (P15381 whole entry, other chains not shown): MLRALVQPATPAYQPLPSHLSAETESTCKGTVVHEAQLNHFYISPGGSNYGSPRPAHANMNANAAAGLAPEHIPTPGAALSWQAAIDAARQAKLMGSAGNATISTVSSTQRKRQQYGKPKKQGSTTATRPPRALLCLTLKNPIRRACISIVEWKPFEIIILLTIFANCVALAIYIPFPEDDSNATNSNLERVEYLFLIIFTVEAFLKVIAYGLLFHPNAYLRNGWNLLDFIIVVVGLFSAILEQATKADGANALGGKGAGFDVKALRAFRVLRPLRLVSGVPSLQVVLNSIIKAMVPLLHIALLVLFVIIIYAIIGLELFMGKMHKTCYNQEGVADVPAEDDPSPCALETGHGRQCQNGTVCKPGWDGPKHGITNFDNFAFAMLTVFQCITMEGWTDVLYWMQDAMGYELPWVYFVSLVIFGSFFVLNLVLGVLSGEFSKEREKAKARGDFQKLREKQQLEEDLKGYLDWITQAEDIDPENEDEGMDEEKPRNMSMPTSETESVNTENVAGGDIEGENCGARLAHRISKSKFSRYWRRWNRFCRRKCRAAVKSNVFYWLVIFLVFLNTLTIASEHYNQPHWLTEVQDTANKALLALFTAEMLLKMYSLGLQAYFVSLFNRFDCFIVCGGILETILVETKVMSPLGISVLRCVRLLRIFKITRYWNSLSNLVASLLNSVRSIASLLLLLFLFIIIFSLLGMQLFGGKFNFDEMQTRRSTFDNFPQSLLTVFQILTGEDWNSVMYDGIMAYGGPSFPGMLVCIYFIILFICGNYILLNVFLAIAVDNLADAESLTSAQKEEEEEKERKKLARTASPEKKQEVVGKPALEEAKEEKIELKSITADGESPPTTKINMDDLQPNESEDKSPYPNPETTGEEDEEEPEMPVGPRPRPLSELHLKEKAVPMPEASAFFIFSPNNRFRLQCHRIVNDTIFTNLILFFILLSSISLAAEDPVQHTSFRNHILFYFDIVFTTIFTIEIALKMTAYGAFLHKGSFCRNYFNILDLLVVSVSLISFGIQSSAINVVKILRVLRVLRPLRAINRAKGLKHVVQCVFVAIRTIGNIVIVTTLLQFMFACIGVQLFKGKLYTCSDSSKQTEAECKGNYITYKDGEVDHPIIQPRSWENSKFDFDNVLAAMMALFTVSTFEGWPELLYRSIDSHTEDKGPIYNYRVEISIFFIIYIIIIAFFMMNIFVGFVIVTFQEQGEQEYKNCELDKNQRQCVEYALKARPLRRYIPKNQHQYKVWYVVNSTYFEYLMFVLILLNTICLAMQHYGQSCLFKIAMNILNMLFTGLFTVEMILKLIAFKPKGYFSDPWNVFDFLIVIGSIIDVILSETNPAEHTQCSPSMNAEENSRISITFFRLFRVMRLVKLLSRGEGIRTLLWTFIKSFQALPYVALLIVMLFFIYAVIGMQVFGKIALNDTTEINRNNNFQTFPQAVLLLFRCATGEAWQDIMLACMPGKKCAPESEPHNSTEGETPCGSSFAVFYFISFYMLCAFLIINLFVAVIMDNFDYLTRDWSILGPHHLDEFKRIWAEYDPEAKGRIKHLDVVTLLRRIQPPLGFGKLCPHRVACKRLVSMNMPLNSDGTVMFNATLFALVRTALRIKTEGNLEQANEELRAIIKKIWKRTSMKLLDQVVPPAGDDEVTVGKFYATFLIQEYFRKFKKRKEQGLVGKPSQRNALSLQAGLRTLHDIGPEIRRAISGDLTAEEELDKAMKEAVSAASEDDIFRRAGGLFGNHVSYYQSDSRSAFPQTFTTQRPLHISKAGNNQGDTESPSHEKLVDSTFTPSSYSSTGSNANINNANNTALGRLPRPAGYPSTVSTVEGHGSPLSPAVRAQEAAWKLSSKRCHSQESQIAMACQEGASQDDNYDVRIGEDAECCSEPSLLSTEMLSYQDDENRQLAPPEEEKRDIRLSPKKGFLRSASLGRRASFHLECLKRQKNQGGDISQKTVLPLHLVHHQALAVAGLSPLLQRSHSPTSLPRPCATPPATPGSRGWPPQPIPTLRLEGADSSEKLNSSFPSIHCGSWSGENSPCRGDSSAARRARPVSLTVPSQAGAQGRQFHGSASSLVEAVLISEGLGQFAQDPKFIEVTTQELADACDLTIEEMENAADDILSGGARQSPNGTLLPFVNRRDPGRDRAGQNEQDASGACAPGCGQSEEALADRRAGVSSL
T1 sequence (P13806 27-960 partner limits assumed, other chains not shown): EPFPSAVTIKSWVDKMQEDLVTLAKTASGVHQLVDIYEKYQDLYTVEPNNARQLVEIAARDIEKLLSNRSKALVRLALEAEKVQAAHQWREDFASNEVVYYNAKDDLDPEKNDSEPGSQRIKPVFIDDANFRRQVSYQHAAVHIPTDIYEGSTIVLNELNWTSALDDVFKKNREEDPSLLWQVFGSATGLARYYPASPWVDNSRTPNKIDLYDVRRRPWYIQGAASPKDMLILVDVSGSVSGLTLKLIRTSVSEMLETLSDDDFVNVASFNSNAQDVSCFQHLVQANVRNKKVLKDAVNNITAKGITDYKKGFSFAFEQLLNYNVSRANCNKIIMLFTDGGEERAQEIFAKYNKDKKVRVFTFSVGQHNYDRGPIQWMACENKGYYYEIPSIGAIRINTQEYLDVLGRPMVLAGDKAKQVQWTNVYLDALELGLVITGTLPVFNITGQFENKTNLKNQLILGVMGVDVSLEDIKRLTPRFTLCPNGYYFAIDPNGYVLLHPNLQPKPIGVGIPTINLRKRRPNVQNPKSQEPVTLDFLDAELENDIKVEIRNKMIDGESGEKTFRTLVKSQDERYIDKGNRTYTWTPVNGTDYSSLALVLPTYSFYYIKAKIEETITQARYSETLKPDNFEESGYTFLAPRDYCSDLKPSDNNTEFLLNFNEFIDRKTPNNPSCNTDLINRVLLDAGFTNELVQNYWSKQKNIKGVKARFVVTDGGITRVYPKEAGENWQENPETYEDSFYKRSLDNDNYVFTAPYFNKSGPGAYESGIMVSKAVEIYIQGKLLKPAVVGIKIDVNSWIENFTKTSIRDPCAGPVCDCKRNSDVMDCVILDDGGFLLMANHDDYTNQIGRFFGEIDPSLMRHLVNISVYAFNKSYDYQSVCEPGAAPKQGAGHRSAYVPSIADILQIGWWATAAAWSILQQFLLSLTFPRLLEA
T1 sequence (P13806 961-1106 partner limits assumed, other chains not shown): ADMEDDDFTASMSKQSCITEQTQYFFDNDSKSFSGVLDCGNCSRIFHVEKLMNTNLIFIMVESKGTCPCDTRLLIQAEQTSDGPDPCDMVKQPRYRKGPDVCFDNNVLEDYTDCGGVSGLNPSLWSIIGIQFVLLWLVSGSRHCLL

As to `CC1=C(C(=O)OCCNC(=O)OC(C)(C)C)C(c2c(F)cccc2Cl)C2=C(CS(=O)(=O)c3ccccc3S2(=O)=O)N1` (centres unmarked) [Compound 25, 1H-[1,5]benzodithiepino[3,2-b]pyridine-3-carboxylic acid, 4-(2-chloro-6-fluorophenyl)-4,11-dihydro-2-methyl-, 2-[[(1,1-dimethylethoxy)carbonyl]amino]ethyl ester, 5,5,10,10-tetraoxide], the half-inhibitory concentration (IC50) under setting [1] was 420 nM.

Take `CC1=C(C(=O)OCCN)C(c2c(F)cccc2Cl)C2=C(CS(=O)(=O)c3ccccc3S2(=O)=O)N1` (centres unmarked) [Compound 26, 1H-[1,5]benzodithiepino[3,2-b]pyridine-3-carboxylic acid, 4-(2-chloro-6-fluorophenyl)-4,11-dihydro-2-methyl-, 2-aminoethyl ester, 5,5,10,10-tetraoxide]: under setting [1], the concentration for half-maximal inhibition (IC50) is 2000 nM.

Regarding `CC1=C(C(=O)OCCOC(=O)C(C)C)C(c2c(F)cccc2Cl)C2=C(CS(=O)(=O)c3ccccc3S2(=O)=O)N1` (centres unmarked) [Compound 27], the IC50 under setting [1] is 26 nM.

Turning to `CC1=C(C(=O)OCCOC(=O)C(C)(C)C)C(c2c(F)cccc2Cl)C2=C(CS(=O)(=O)c3ccccc3S2(=O)=O)N1` (centres unmarked) [Compound 28, 1H-[1,5]benzodithiepino[3,2-b]pyridine-3-carboxylic acid, 4-(2-chloro-6-fluorophenyl)-4,11-dihydro-2-methyl-, 2-(2,2-dimethyl-1-oxopropoxy)ethyl ester, 5,5,10,10-tetraoxide], the 50% inhibitory concentration (IC50) under setting [1] was 370 nM.

In the case of `CC1=C(C(=O)OCCNC(=O)c2ccccc2)C(c2c(F)cccc2Cl)C2=C(CS(=O)(=O)c3ccccc3S2(=O)=O)N1` (centres unmarked) [Compound 29, 1H-[1,5]benzodithiepino[3,2-b]pyridine-3-carboxylic acid, 4-(2-chloro-6-fluorophenyl)-4,11-dihydro-2-methyl-, 2-(benzoylamino)ethyl ester, 5,5,10,10-tetraoxide], the IC50 under setting [1] turned out to be 859 nM.

`CC1=C(C(=O)OCCOC(=O)Cc2ccccc2)C(c2c(F)cccc2Cl)C2=C(CS(=O)(=O)c3ccccc3S2(=O)=O)N1` (centres unmarked) [Compound 30]: the IC50 was 110 nM.

As for `COc1ccc2cc([C@H](C)C(=O)OCCOC(=O)C3=C(C)NC4=C(C3c3c(F)cccc3Cl)S(=O)(=O)c3ccccc3S(=O)(=O)C4)ccc2c1` (stereo partly drawn) [Compound 31, 1H-[1,5]benzodithiepino[3,2-b]pyridine-3-carboxylic acid, 4-(2-chloro-6-fluorophenyl)-4,11-dihydro-2-methyl-, 2-[[(2S)-2-(6-methoxy-2-naphthalenyl)-1-oxopropyl]oxy]ethyl ester, 5,5,10,10-tetraoxide], under setting [1], the IC50 was 209 nM.

Take `CC1=C(C(=O)OCCOC(=O)C(C)c2ccc(CC(C)C)cc2)C(c2c(F)cccc2Cl)C2=C(CS(=O)(=O)c3ccccc3S2(=O)=O)N1` (centres unmarked) [Compound 32]: the IC50 under setting [1] was found to be 618 nM.

As to `CC1=C(C(=O)OCCCO)C(c2c(F)cccc2Cl)C2=C(CS(=O)(=O)c3ccccc3S2(=O)=O)N1` (centres unmarked) [Compound 33], the IC50 under setting [1] is 1440 nM.

For `CC1=C(C(=O)OCCCOC(=O)c2ccccc2)C(c2c(F)cccc2Cl)C2=C(CS(=O)(=O)c3ccccc3S2(=O)=O)N1` (centres unmarked) [Compound 34], the IC50 under setting [1] turned out to be 188 nM.

Regarding `CC1=C(C(=O)OCCOC(=O)CCCCCCc2ccccc2)C(c2c(F)cccc2Cl)C2=C(CS(=O)(=O)c3ccccc3S2(=O)=O)N1` (centres unmarked) [Compound 35], the IC50 under setting [1] worked out at 60 nM.

Turning to `CC1=C(C(=O)OCCOC(=O)CCCCCCCCCc2ccccc2)C(c2c(F)cccc2Cl)C2=C(CS(=O)(=O)c3ccccc3S2(=O)=O)N1` (centres unmarked) [Compound 36], under setting [1], the IC50 is 116000 nM.

`CC1=C(C(=O)OCCOC(=O)/C=C/c2ccccc2)C(c2c(F)cccc2Cl)C2=C(CS(=O)(=O)c3ccccc3S2(=O)=O)N1` (centres unmarked) [Compound 37, 1H-[1,5]benzodithiepino[3,2-b]pyridine-3-carboxylic acid, 4-(2-chloro-6-fluorophenyl)-4,11-dihydro-2-methyl-, 2-[[(2E)-1-oxo-3-phenyl-2-propenyl]oxy]ethyl ester, 5,5,10,10-tetraoxide]: under setting [1], the IC50 turned out to be 101 nM.

In the case of `CC1=C(C(=O)OCc2oc(=O)oc2-c2ccccc2)C(c2c(F)cccc2Cl)C2=C(CS(=O)(=O)c3ccccc3S2(=O)=O)N1` (centres unmarked) [Compound 40], the IC50 under setting [1] came to 11 nM.
